Assay results taken from ChEMBL document CHEMBL4024718, “Design and synthesis of quinazolinones as EGFR inhibitors to overcome EGFR resistance obstacle” (Bioorg Med Chem, 2017).

Legend:
[1] = target: Aurora kinase A (Homo sapiens) (UniProt O14965); assay: Inhibition of N-terminal His6-tagged recombinant full-length human Aurora A expressed in Sf21 insect cells at 3 uM relative to control
[2] = target: Tyrosine-protein kinase JAK2 (Homo sapiens) (UniProt O60674); assay: Inhibition of C-terminal His6-tagged recombinant human JAK2 (808 to end residue) expressed in baculovirus infected Sf21 insect cells at 3 uM relative to control
[3] = target: Insulin-like growth factor 1 receptor (Homo sapiens) (UniProt P08069); assay: Inhibition of N-terminal 6His-tagged recombinant human IGF-1R (959 to end residues) expressed in baculovirus infected Sf21 insect cells at 3 uM relative to control
[4] = target: 5'-AMP-activated protein kinase catalytic subunit alpha-1 (Homo sapiens) (UniProt Q13131); assay: Inhibition of full length recombinant human C-terminal His-tagged AMPKalpha1 expressed in Spodoptera frugiperda insect cells at 3 uM relative to control
[5] = target: Focal adhesion kinase 1 (Homo sapiens) (UniProt Q05397); assay: Inhibition of N-terminal 6His-tagged recombinant human FAK (411 to 686 residues) expressed in baculovirus infected Sf21 insect cells at 3 uM relative to control
[6] = target: Insulin receptor (Homo sapiens) (UniProt P06213); assay: Inhibition of N-terminal 6His-tagged recombinant human insulin receptor (1005 to 1310 residues) expressed in baculovirus infected Sf21 insect cells at 3 uM relative to control
NCI-H1975 = assay: cells; type: functional, cell-based; conditions: Homo sapiens, NCI-H1975, 48 h
[7] = target: Mast/stem cell growth factor receptor Kit (Homo sapiens) (UniProt P10721); assay: Inhibition of N-terminal GST tagged recombinant human c-Kit (544 to end residues) expressed in baculovirus infected Sf21 insect cells at 3 uM relative to control
HT-29 = assay: Antiproliferative activity against non-special gene type human HT-29 cells after 48 hrs by SRB assay; type: cell-based; conditions: HT-29, 48 h
[8] = target: Epidermal growth factor receptor (Homo sapiens, UniProt P00533, T790M)
[9] = target: Epidermal growth factor receptor (Homo sapiens, UniProt P00533); assay: Inhibition of human EGFR preincubated for 5 mins with substrate followed by ATP addition measured after 30 mins by HTRF method; type: ADME
[10] = target: Fibroblast growth factor receptor 1 (Homo sapiens) (UniProt P11362); assay: Inhibition of N-terminal GST-tagged recombinant human FGFR1 (456 to 765 residues) expressed in baculovirus infected Sf21 insect cells at 3 uM relative to control
[11] = target: LKB1-STRAD-MO25 complex (Homo sapiens) (UniProt Q15831+Q7RTN6+Q9Y376); assay: Inhibition of recombinant full-length N-terminal 6-His-tagged human LKB1/GST-tagged MO25alpha/GST-tagged STRADalpha expressed in SF21 cells at 3 uM relative to control
[12] = target: Dual specificity mitogen-activated protein kinase kinase 1 (Homo sapiens) (UniProt Q02750); assay: Inhibition of recombinant human N-terminal GST-fused MEK1 expressed in Escherichia coli at 3 uM relative to control
A549 = assay: Antiproliferative activity against human A549 cells harboring wild type EGFR after 48 hrs by SRB assay; type: cell-based; conditions: A549, 48 h
[13] = target: Tyrosine-protein kinase Blk (Homo sapiens) (UniProt P51451); assay: Inhibition of human N-terminal His6 tagged recombinant full-length human Blk expressed in Sf21 insect cells at 3 uM relative to control
[14] = target: Tyrosine-protein kinase ABL1 (Homo sapiens) (UniProt P00519); assay: Inhibition of N-terminal His6-tagged recombinant human Abl (27 to end residues) expressed in baculovirus infected Sf21 insect cells at 3 uM relative to control
[15] = target: Tyrosine-protein kinase SYK (Homo sapiens) (UniProt P43405); assay: Inhibition of recombinant full length N-terminal His6-tagged human SYK expressed in baculovirus infected Sf21 insect cells at 3 uM relative to control
[16] = target: EGFR (epidermal growth factor receptor) kinase domain (Homo sapiens, UniProt P00533); assay: Inhibition of N-terminal GST-tagged human EGFR kinase domain (696 to end residues) expressed in baculovirus infected Sf21 insect cells at 3 uM relative to control
[17] = target: Vascular endothelial growth factor receptor 1 (Homo sapiens) (UniProt P17948); assay: Inhibition of recombinant human VEGFR-1 expressed in Spodoptera frugiperda insect cells at 3 uM relative to control
[18] = target: Receptor-type tyrosine-protein kinase FLT3 (Homo sapiens) (UniProt P36888); assay: Inhibition of N-terminal GST tagged recombinant human Flt3 (564 to end residues) at 3 uM relative to control
[19] = target: Cyclin-dependent kinase 1/cyclin B1 (Homo sapiens) (UniProt P06493+P14635); assay: Inhibition of C-terminal His6-tagged human full length Cdk1/N-terminal GST-tagged human full length Cyclin B expressed in baculovirus infected Sf21 insect cells at 3 uM relative to control
[20] = target: Hepatocyte growth factor receptor (Homo sapiens) (UniProt P08581); assay: Inhibition of N-terminal His6-tagged recombinant human Met (974 to end residues) expressed in baculovirus infected Sf21 insect cells at 3 uM relative to control
[21] = target: Vascular endothelial growth factor receptor 2 (Homo sapiens) (UniProt P35968); assay: Inhibition of recombinant human VEGFR-2 at 3 uM relative to control

Chain of Epidermal growth factor receptor (Homo sapiens, UniProt P00533) (P00533 whole entry, the tested form may be a part): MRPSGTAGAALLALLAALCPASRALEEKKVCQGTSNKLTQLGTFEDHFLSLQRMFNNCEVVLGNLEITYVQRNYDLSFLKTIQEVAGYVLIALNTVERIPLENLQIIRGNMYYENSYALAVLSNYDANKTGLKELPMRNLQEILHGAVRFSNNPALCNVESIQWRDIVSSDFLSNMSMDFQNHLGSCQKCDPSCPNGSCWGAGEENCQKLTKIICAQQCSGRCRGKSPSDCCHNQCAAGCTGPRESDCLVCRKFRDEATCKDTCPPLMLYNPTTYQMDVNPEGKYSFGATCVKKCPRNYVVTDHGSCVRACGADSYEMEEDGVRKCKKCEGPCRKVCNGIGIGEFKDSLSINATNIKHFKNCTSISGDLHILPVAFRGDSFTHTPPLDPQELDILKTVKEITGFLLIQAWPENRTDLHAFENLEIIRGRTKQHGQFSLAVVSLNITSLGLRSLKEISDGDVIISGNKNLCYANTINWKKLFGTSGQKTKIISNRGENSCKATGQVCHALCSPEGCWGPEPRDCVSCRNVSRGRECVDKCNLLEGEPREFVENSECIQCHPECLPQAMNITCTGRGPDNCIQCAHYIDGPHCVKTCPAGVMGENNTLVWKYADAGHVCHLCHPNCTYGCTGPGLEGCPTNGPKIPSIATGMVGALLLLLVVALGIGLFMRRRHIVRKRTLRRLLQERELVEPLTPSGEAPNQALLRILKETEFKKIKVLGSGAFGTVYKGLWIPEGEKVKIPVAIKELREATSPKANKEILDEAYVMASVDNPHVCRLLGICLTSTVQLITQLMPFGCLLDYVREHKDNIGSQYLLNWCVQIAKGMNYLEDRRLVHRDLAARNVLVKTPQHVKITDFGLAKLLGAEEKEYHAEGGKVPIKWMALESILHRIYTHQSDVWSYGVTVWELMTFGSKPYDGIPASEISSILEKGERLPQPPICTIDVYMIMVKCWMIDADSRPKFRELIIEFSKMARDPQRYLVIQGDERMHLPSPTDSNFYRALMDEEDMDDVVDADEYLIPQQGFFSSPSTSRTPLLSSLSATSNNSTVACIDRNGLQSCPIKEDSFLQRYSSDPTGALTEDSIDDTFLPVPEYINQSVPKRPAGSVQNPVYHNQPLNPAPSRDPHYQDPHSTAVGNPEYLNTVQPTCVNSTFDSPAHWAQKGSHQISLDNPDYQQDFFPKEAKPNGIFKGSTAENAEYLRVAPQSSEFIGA
Chain of Epidermal growth factor receptor (Homo sapiens, UniProt P00533, T790M) (P00533 25-1210 T790M limits assumed): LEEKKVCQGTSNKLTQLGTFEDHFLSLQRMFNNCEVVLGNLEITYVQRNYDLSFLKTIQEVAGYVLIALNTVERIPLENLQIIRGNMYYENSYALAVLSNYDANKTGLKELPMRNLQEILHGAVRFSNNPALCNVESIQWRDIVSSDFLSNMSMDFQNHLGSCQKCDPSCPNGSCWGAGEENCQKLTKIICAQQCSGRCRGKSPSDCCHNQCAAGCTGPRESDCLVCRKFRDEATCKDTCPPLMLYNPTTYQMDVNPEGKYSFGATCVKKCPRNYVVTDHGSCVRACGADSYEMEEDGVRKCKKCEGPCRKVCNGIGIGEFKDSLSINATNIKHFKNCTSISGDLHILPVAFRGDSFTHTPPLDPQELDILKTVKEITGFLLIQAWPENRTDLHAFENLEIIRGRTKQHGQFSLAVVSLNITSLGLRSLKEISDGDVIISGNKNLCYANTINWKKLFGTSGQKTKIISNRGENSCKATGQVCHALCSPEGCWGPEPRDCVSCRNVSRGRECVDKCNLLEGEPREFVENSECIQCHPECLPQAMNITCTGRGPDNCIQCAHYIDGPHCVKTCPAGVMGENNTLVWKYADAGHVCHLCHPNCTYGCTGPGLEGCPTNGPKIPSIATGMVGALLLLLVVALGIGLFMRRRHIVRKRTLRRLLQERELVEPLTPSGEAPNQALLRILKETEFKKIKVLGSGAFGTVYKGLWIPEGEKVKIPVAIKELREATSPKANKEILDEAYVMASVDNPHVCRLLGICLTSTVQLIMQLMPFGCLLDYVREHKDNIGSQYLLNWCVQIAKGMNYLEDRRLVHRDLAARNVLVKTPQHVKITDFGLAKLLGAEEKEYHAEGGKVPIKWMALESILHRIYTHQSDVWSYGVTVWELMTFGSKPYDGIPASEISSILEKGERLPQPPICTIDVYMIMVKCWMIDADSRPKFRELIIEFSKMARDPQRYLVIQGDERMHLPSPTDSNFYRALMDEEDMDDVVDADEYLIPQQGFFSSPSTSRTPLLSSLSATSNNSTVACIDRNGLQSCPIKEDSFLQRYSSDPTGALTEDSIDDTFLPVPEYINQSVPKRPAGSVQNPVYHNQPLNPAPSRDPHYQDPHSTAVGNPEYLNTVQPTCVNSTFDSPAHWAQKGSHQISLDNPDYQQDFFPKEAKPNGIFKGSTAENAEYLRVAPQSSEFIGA
Chain of Tyrosine-protein kinase JAK2 (Homo sapiens) (O60674 whole entry): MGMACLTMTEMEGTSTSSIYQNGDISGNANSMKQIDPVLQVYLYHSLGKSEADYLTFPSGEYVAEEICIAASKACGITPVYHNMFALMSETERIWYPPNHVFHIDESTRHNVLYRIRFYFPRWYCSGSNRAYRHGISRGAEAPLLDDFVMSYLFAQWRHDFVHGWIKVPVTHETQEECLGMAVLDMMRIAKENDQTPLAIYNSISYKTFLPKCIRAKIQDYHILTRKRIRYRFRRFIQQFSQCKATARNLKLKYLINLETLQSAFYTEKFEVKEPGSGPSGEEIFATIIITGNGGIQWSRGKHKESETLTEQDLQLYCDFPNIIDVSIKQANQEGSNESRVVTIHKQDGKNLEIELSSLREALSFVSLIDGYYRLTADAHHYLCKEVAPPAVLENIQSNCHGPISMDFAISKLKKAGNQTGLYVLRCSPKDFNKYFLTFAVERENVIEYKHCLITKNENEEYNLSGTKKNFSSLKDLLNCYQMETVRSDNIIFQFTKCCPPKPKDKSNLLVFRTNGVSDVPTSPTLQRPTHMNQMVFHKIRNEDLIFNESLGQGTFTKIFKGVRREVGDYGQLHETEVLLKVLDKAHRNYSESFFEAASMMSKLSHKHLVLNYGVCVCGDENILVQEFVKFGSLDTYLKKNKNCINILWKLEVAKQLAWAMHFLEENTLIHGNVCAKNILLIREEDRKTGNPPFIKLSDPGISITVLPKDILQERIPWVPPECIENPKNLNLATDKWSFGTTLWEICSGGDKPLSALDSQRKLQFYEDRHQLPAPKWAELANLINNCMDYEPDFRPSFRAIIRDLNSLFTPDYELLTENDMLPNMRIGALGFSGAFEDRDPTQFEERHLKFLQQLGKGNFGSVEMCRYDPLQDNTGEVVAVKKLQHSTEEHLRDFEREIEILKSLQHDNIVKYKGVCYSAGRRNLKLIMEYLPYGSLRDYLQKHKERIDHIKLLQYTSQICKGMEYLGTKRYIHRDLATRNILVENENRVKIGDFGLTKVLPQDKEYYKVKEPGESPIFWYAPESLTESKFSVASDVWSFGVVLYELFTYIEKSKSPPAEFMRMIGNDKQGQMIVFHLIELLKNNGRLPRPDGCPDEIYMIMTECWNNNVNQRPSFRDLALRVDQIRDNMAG
Chain of Hepatocyte growth factor receptor (Homo sapiens) (P08581 whole entry): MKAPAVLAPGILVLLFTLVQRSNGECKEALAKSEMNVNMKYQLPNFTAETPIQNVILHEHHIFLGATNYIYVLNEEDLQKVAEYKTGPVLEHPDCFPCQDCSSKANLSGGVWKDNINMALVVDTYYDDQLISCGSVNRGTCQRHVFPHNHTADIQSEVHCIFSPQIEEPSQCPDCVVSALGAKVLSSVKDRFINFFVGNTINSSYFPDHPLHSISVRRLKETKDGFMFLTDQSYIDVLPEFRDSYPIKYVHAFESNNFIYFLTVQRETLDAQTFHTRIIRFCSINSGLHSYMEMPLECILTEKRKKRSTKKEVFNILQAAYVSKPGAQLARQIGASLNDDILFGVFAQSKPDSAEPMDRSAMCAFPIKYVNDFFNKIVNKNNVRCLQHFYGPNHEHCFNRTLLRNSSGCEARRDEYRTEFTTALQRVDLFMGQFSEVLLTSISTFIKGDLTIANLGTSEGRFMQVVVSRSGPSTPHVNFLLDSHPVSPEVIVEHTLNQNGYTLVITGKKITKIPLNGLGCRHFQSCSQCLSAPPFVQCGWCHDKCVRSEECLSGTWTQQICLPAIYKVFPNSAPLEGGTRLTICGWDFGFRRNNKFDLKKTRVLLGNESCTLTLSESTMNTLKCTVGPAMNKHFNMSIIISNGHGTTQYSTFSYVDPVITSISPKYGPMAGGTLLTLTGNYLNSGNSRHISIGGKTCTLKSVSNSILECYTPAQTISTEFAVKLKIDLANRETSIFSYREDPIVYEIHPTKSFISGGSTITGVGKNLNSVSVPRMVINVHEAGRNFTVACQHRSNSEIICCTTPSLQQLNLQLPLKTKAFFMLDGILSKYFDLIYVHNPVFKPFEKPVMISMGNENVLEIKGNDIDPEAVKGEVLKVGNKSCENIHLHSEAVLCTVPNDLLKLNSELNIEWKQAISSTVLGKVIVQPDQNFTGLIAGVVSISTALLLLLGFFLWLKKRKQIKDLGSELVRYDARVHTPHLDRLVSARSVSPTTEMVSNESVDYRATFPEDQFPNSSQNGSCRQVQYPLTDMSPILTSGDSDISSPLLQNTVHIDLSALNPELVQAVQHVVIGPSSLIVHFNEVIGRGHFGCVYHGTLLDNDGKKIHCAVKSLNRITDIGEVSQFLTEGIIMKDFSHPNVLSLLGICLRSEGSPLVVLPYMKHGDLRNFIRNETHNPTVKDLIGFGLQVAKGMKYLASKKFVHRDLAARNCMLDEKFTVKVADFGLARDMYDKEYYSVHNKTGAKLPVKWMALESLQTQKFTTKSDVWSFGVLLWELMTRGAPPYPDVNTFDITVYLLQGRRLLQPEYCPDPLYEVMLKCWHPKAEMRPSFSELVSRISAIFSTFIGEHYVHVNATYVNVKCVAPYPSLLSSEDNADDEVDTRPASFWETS

Row | SMILES | IC50 (NCI-H1975) | IC50 (HT-29) | IC50 [8] | IC50 [9] | IC50 (A549) | other results
1 | COc1ccc(-c2nnc(-n3c(-c4ccccc4)nc4cc(Cl)ccc4c3=O)s2)cc1 | 0.031 µM | 0.388 µM | 0.021 µM | 0.32 µM | 0.39 µM | inhibition [1]: 0%; inhibition [2]: 0%; inhibition [3]: 10%; inhibition [4]: 0%; inhibition [5]: 0%; inhibition [6]: 0%; inhibition [7]: 0%; inhibition [10]: 0%; inhibition [11]: 0%; inhibition [12]: 0%; inhibition [13]: 0%; inhibition [14]: 0%; inhibition [15]: 0%; inhibition at 3 µM [16]: 78%; inhibition [17]: 0 to 34%; inhibition [18]: 0%; inhibition [19]: 0%; inhibition [20]: 0%; inhibition [21]: 42%
2 | Nc1ccccc1-n1c(-c2ccccc2)nc2cc(Cl)ccc2c1=O | 4.87 µM | 50 µM |  |  | 18.3 µM | 
3 | O=c1c2ccccc2nc(-c2ccccc2)n1-c1nnc(C2CC2)s1 | 2.38 µM | 3.46 µM |  |  | 3.02 µM | 
4 | O=c1c2ccc(Cl)cc2nc(-c2ccccc2)n1-c1nnc(C2CC2)s1 | 0.129 µM | 0.732 µM | 0.102 µM | 0.53 µM | 0.717 µM | 
5 | C=CC(=O)Nc1cccc(Oc2nc(Nc3ccc(N4CCN(C)CC4)cc3OC)ncc2Cl)c1 |  |  |  |  | 1.87 µM | 
6 | O=c1c2ccc(Cl)cc2nc(-c2ccccc2)n1-c1nnc(-c2ccccc2)s1 | 0.213 µM | 2.72 µM | 1.12 µM | 1.68 µM | 2.09 µM | 
7 | O=C(Nc1cc(Cl)ccc1C(=O)Nc1ccc(F)cc1)c1ccccc1 | 14.4 µM | 3.36 µM |  |  | 17.4 µM | 
8 | O=c1c2ccccc2nc(-c2ccccc2)n1-c1nnc(-c2ccccc2Cl)s1 | 5.23 µM | 32.5 µM | 7.23 µM | 78.2 µM | 100 µM | 
9 | Cc1nnc(-n2c(-c3ccccc3)nc3cc(Cl)ccc3c2=O)s1 | 0.76 µM | 21.2 µM |  |  | 3.79 µM | 
10 | O=C(Nn1c(-c2ccccc2)nc2ccccc2c1=O)c1ccc(Br)cc1 | 0.81 µM | 1.15 µM | 0.78 µM | 0.42 µM | 0.523 µM | 
11 | O=C(Nc1cc(Cl)ccc1C(=O)NCc1ccccc1)c1ccccc1 | 1.67 µM | 4.8 µM |  |  | 1.57 µM | 
12 | COc1ccc(-n2c(-c3ccccc3)nc3cc(Cl)ccc3c2=O)cc1 | 2.88 µM | 3.92 µM |  |  | 2.87 µM | 
13 | CC(=O)c1ccccc1-n1c(-c2ccccc2)nc2cc(Cl)ccc2c1=O | 0.846 µM | 50 µM | 0.72 µM | 34.3 µM | 50 µM | 
14 | O=c1c2ccc(Cl)cc2nc(-c2ccccc2)n1-c1cccc(Cl)c1 | 2.45 µM | 4.5 µM |  |  | 5.3 µM | 
15 | O=c1c2ccccc2nc(-c2ccccc2)n1-c1ccc(F)c(Cl)c1 | 4.89 µM | 6.12 µM |  |  | 5.42 µM | 
16 | O=c1c2ccc(Cl)cc2nc(-c2ccccc2)n1-c1cccnc1 | 2.45 µM | 3.8 µM |  |  | 3.33 µM | 
17 | NCCn1c(-c2ccccc2)nc2cc(Cl)ccc2c1=O | 0.378 µM | 0.428 µM | 0.287 µM | 2.11 µM | 2.45 µM | 
